Measurements as given in patent publication US20140249095A1, “Method for Inhibiting Spinocerebellar Ataxia” (National Normal University, priority 2013, published 2014).

What was measured:
[1] = tested on: ATXN3/Q75 aggregation in 293 ATXN3/Q75-GFP cells; test: ATXN3/Q75 aggregation assay on 293 cell model; format: cell-based, human; details: for ATXN3/Q75 aggregation as compared to untreated cells: 293 ATXN3/Q75-GFP cells, doxycycline and oxaliplatin 6 days; for IC50 cytotoxicity/effective dose ratio: effective dose = reduced the ATXN3/Q75 aggregation to 85% or lower
Method: (§1) The cloned pcDNA5/FRT/TO-ATXN3/Q14 and Q75 plasmids were used to generate the isogenic ATXN3/Q14˜75 cell lines by targeting insertion into Flp-In™-293 cells. These cell lines were grown in medium containing 5 μg/mL blasticidin and 100 μg/mL hygromycin (InvivoGen). In addition, human SH-SYSY-derived Flp-In host cell line was constructed as described, and the SH-SYSY host cells were used to generate isogenic ATXN3/Q14˜75 lines and maintained as described above. ATXN3/Q75 Aggregation Assay
Then, doxycycline (10 μg/mL, BD) was added to the medium in each well to induce ATXN3/Q75-GFP expression for 6 days.
In the present example, the influences of the P. lactiflora extract and paeoniflorin in the ATXN3/Q75-GFP cells were respectively examined.

in vitro [2] = details: human
Method: (§2) Cells were cultivated at 37° C. incubator containing 5% CO2 and cell proliferation was measured based upon the reduction of the tetrazolium salt, 3,[4,5-dimethylthiazol-2-yl]-2,5-diphenyl-tetrazolium bromide (MTT). Cells were plated into 48-well (5×10^4/well) dishes, grown for 20 hours and treated with different concentrations of the P. lactiflora extract (5˜30 mg/mL) or pure compound (100 nM˜1 mM). After one day, 20 μL MTT (5 mg/mL in PBS, Sigma) was added to cells and incubated for 2 hours. The absorbance of the purple formazan dye was measured at 570 nm by a Bio-Tek μQuant Universal Microplate Spectrophotometer.

[3] = tested on: ATXN3/Q75 aggregation in SH-SY5Y ATXN3/Q75-GFP cells; test: ATXN3/Q75 aggregation assay on SH-SY5Y cell model; format: cell-based, human; details: paeoniflorin 100 nM; retinoic acid differentiated SH-SY5Y ATXN3/Q75-GFP cells, 6 days
Method: as §1

in vitro [4] = details: human; remark: listed apart in the source
Method: as §2

Method for HEK-293 cells: as §2
Method for SH-SY5Y cells: as §2

| IC50 (HEK-293 cells) | IC50 (SH-SY5Y cells) | IC50 at 24 h (in vitro [2]) | IC50 at 24 h (in vitro [4]) | SMILES | ATXN3/Q75 aggregation as compared to untreated cells ([1]; at 100 nM) | ATXN3/Q75 aggregation as compared to untreated cells ([1]; at 5 μM) | IC50 cytotoxicity/effective dose ratio [1] | aggregation reduction in ATXN3/Q75 expressed neuronal cells [3] |
| --- | --- | --- | --- | --- | --- | --- | --- | --- |
|  |  |  |  | O=C(CCCCCCC(=O)Nc1ccccc1)NO [SAHA, suberoylanilide hydroxamic acid, reference compound] | 85% |  |  |  |
| > 1000 µM | > 1000 µM |  |  | C[C@]12C[C@@H](O)[C@@H]3C[C@@]1(O[C@@H]1O[C@H](CO)[C@@H](O)[C@H](O)[C@H]1O)[C@@]3(COC(=O)c1ccccc1)C(=O)O2 [albiflorin] |  | 78% | > 200 |  |
|  |  | > 1000 µM | > 1000 µM | C[C@@]12C[C@@]3(O)O[C@@H](O1)[C@]1(COC(=O)c4ccccc4)[C@H]3C[C@@]12O[C@@H]1O[C@H](CO)[C@@H](O)[C@H](O)[C@H]1O [paeoniflorin] | 73% |  | > 10000 | 21% |
